Test results from ChEMBL document CHEMBL6078625 (J Med Chem, 2024).

What was measured:
[1] = biological target: T1, Discoidin domain-containing receptor 2 (Homo sapiens, UniProt Q16832); experiment: Inhibition of human DDR2 by discoverX kinome scan assay
T1 sequence (Q16832 whole entry): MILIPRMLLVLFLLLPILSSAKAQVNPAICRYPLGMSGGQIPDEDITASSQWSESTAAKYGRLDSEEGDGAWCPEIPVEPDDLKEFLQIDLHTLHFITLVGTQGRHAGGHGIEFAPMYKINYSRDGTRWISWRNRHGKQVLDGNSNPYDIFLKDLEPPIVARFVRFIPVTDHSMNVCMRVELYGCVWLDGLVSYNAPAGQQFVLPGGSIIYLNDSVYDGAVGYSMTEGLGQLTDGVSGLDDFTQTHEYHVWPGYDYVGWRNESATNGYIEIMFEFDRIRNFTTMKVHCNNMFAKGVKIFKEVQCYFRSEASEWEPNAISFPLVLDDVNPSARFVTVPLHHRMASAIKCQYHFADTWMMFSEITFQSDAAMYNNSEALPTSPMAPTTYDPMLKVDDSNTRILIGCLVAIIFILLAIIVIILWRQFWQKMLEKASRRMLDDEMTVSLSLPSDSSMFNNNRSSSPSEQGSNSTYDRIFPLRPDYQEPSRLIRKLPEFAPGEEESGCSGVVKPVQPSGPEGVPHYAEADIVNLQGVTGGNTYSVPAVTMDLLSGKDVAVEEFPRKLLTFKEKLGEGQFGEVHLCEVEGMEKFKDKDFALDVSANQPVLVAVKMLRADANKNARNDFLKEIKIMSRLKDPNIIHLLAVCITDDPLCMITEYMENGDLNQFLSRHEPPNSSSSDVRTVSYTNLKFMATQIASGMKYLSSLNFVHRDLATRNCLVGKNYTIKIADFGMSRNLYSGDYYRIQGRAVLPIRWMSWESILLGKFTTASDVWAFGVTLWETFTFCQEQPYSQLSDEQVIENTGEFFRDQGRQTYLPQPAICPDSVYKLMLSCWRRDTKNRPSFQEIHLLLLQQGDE

[2] = biological target: T2, Muscle, skeletal receptor tyrosine-protein kinase (Homo sapiens, UniProt O15146); experiment: Inhibition of human MUSK by discoverX kinome scan assay
T2 sequence (O15146 whole entry): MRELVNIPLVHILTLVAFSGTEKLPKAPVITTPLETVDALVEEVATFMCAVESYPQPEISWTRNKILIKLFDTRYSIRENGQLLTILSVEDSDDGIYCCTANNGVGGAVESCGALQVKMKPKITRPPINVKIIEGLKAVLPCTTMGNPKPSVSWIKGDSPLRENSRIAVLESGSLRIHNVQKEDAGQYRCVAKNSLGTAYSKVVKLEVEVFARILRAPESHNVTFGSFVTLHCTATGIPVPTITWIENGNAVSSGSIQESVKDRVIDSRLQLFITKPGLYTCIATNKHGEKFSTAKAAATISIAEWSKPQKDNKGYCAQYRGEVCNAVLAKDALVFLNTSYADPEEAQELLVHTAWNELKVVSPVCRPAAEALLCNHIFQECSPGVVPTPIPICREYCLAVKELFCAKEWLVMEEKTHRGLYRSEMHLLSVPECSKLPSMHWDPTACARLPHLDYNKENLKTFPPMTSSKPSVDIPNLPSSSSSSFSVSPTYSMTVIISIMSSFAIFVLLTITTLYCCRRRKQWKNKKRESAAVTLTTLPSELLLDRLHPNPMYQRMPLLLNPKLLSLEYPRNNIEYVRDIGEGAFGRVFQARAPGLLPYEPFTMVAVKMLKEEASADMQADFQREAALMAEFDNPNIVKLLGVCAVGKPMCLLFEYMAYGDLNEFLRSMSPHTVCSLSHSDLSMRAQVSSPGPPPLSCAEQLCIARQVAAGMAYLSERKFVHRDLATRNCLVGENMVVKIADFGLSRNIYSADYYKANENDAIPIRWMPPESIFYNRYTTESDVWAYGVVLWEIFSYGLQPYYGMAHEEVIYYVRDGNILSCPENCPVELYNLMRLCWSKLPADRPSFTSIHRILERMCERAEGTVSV

[3] = biological target: High affinity nerve growth factor receptor (Homo sapiens, UniProt P04629); experiment: Inhibition of human TRKA by discoverX kinome scan assay
High affinity nerve growth factor receptor, sequence (P04629 whole entry, the tested form may be a part): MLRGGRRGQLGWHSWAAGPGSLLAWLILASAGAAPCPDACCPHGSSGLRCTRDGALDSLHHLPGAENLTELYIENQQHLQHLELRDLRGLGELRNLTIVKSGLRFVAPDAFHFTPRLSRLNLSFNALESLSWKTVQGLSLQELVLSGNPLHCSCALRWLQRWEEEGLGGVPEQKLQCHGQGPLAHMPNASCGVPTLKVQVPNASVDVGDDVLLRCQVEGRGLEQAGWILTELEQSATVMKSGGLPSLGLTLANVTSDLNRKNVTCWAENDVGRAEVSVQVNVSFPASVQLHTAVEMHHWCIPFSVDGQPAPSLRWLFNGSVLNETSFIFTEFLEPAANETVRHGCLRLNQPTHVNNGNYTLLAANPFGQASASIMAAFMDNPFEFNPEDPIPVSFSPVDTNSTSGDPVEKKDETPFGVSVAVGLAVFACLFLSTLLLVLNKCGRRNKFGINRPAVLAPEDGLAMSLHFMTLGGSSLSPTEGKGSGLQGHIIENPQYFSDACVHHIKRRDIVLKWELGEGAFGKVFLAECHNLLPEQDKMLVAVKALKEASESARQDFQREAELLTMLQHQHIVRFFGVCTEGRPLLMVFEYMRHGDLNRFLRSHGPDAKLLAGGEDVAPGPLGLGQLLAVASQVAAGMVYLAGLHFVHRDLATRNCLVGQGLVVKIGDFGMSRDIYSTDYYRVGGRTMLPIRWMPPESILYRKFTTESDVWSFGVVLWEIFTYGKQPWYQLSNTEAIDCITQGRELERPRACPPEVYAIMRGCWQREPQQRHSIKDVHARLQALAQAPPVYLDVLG

[4] = biological target: Epithelial discoidin domain-containing receptor 1 (Homo sapiens, UniProt Q08345); experiment: Inhibition of human DDR1 by discoverX kinome scan assay
Epithelial discoidin domain-containing receptor 1, sequence (Q08345 whole entry, the tested form may be a part): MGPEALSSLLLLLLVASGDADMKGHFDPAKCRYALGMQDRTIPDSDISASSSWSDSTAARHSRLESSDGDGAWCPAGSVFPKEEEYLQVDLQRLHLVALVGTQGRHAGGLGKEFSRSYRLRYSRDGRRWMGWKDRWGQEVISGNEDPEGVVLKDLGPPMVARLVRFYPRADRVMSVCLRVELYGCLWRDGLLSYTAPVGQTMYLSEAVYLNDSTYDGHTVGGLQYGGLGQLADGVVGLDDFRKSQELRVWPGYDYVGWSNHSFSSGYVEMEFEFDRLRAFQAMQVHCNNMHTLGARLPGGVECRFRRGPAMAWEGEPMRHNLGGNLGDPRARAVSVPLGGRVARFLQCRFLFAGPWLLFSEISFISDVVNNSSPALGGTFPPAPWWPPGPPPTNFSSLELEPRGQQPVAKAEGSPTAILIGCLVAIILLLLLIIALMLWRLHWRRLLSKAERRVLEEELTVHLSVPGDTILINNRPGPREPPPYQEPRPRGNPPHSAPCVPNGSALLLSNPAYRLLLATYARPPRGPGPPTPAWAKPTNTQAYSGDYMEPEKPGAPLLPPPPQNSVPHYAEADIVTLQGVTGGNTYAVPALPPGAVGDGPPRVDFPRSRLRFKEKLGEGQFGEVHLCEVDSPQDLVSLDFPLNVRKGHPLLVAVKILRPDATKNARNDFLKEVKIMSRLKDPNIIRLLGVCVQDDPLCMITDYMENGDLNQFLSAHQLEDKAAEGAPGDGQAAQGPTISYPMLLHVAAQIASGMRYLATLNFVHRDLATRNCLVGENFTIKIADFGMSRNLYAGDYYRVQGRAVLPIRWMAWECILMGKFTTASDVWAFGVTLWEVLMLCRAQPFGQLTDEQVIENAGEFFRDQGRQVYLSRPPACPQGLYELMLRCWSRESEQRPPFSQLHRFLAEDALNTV

[5] = test system: BaF3; experiment: Antiproliferative activity against mouse BaF3 cells harbouring FLT3-ITD-D835V mutant; assay type: functional, cell-based
[6] = test system: MOLM-13; experiment: Antiproliferative activity against human MOLM-13 cells; assay type: functional, cell-based
[7] = test system: MV4-11; experiment: Antiproliferative activity against human MV4-11 cells; assay type: functional, cell-based
[8] = biological target: T3, Receptor-type tyrosine-protein kinase FLT3 (Homo sapiens, UniProt P36888); experiment: Inhibition of wild type FLT3 (unknown origin)
T3 sequence (P36888 whole entry): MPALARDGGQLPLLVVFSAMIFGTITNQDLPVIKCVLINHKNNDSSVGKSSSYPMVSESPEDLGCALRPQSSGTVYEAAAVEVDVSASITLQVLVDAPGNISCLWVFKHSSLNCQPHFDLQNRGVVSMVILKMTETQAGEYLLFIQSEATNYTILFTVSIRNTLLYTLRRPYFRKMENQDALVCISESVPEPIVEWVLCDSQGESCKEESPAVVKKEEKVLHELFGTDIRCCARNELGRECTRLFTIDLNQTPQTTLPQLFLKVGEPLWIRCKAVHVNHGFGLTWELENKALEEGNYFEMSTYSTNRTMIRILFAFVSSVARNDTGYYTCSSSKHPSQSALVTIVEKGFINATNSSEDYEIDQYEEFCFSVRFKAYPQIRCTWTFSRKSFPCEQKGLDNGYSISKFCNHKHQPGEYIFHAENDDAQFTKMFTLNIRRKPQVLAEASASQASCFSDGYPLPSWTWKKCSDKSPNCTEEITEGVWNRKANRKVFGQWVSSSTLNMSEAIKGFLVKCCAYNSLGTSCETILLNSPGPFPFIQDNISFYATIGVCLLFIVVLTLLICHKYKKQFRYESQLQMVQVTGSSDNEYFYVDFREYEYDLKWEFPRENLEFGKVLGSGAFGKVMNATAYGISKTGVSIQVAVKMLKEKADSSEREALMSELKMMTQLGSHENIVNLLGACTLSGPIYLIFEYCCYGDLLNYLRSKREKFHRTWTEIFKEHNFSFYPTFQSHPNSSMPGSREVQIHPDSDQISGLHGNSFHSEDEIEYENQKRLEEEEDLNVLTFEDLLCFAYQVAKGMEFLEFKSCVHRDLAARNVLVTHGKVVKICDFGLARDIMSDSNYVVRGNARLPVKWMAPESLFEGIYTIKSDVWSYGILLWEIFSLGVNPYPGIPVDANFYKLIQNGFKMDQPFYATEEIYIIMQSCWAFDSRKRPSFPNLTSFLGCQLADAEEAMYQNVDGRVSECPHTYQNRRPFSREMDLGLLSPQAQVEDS

[9] = test system: BaF3; experiment: Antiproliferative activity against mouse BaF3 cells harbouring FLT3-ITD-F691L mutant; assay type: functional, cell-based
[10] = test system: BaF3; experiment: Antiproliferative activity against mouse BaF3 cells harbouring FLT3-ITD-N676D mutant; assay type: functional, cell-based

IC50 [1] [nM] | IC50 [2] [nM] | IC50 [3] [nM] | IC50 [4] [nM] | IC50 [5] [nM] | IC50 [6] [nM] | IC50 [7] [nM] | IC50 [8] [nM] | IC50 [9] [nM] | IC50 [10] [nM] | Compound
96.7 | > 1000 | 113 | 55.4 |  |  |  |  |  |  | Cc1cc(-c2ccc(NC(=O)Nc3ccc(C(C)(C)C)cc3)cc2)c2c(N)noc2n1
 |  |  |  | 8420 | 140 | 58 | 103 | 3570 | 1160 | COc1cccc(CC(=O)Nc2ccc(-c3cc(C)nc4nocc34)cc2)c1
